In ChEMBL document CHEMBL5584334, “Discovery of a Covalent Inhibitor of Pro-Caspase-1 Zymogen Blocking NLRP3 Inflammasome Activation and Pyroptosis” (J Med Chem, 2024):
Active and inactive are the calls of the source. No cut-off for these calls is given here.

Columns and labels:
THP-1 [1] = test: Effect on pro-caspase 1 protein expression in LPS/MSU stimulated human THP-1 cells supernatant by Western blotting analysis; type: functional, cell-based
[2] = Acute toxicity in Kunming mouse assessed as change in LDH level at 100 mg/kg, ip administered for 14 days; type: organism-based; conditions: in vivo, 336 h, time 14 day
[3] = Tmax in rat at 25 mg/kg, po; type: ADME, organism-based; conditions: in vivo
J774.A1 [4] = test: Effect on ASC oligomerization in mouse J774.A1 cells at 2 uM pretreated with LPS for 3 hrs prior to compound addition followed by nigericin stimulation; type: functional, cell-based
Mus musculus [5] = test: Anti-inflammatory activity in MSU/C18:0 free fatty acid induced Kunming mouse model of gouty arthritis assessed as reduction NLRP3 expression at 5 to 20 mg/kg, ip preadministered with compound for 30 mins followed by MSU/C18:0 free fatty acid injection and measured after 24 hrs by Western blotting analysis; type: functional, organism-based; conditions: dose 5-20 mg/kg, time 24.5 hrs
THP-1 [6] = test: Inhibition of p20 fragment of IL-1beta protein expression in LPS/ATP stimulated human THP-1 cells supernatant by Western blotting analysis; type: functional, cell-based
Mus musculus [7] = test: Anti-inflammatory activity in MSU/C18:0 free fatty acid induced Kunming mouse model of gouty arthritis assessed as reduction in joint swelling at 5 to 20 mg/kg, ip preadministered with compound for 30 mins followed by MSU/C18:0 free fatty acid injection and measured after 24 hrs; type: functional, organism-based; conditions: dose 5-20 mg/kg, time 24.5 hrs
J774.A1 [8] = test: Effect on ASC speck formation in mouse J774.A1 cells at 2 uM pretreated with LPS for 3 hrs prior to compound addition followed by nigericin stimulation; type: functional, cell-based
J774.A1 [9] = test: Inhibition of mitochondrial damage in LPS/nigericin stimulated mouse J774.A1 cells; type: functional, cell-based
J774.A1 [10] = test: Inhibition of ROS production in LPS/nigericin stimulated mouse J774.A1 cells; type: functional, cell-based
[11] = Acute toxicity in Kunming mouse assessed as heart damage at 100 mg/kg, ip administered for 14 days; type: organism-based; conditions: in vivo, 336 h, time 14 day
Caspase-7 (Mus musculus) = target: T1, Caspase-7 (Mus musculus) (UniProt P97864); test: Inhibition of cisplatin induced caspase-7 activation in mouse J774.A1 cells at 2 uM preincubated for 30 mins followed by cisplatin addition and incubated overnight; type: cell-based
T1 sequence (whole entry): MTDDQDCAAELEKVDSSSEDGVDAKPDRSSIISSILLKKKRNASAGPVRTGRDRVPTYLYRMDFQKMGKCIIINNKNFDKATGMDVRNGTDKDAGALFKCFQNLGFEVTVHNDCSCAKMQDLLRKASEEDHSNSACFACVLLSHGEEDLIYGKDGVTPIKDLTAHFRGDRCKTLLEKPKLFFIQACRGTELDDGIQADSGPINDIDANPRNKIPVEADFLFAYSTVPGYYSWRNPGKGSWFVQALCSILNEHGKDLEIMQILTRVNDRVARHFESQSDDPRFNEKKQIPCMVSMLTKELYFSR

[12] = target: NACHT, LRR and PYD domains-containing protein 3 (Mus musculus) (UniProt Q8R4B8); test: Inhibition of NLRP3 inflammasome activation in LPS primed Casp1 knockout mouse BMDM cells transfected with caspase-1 C395A mutant assessed as reduction in IL-1beta release at 2 uM preincubated for 30 mins followed by nigericin stimulation; type: cell-based
Chain of NACHT, LRR and PYD domains-containing protein 3 (Mus musculus) (Q8R4B8 whole entry, the tested form may be a part): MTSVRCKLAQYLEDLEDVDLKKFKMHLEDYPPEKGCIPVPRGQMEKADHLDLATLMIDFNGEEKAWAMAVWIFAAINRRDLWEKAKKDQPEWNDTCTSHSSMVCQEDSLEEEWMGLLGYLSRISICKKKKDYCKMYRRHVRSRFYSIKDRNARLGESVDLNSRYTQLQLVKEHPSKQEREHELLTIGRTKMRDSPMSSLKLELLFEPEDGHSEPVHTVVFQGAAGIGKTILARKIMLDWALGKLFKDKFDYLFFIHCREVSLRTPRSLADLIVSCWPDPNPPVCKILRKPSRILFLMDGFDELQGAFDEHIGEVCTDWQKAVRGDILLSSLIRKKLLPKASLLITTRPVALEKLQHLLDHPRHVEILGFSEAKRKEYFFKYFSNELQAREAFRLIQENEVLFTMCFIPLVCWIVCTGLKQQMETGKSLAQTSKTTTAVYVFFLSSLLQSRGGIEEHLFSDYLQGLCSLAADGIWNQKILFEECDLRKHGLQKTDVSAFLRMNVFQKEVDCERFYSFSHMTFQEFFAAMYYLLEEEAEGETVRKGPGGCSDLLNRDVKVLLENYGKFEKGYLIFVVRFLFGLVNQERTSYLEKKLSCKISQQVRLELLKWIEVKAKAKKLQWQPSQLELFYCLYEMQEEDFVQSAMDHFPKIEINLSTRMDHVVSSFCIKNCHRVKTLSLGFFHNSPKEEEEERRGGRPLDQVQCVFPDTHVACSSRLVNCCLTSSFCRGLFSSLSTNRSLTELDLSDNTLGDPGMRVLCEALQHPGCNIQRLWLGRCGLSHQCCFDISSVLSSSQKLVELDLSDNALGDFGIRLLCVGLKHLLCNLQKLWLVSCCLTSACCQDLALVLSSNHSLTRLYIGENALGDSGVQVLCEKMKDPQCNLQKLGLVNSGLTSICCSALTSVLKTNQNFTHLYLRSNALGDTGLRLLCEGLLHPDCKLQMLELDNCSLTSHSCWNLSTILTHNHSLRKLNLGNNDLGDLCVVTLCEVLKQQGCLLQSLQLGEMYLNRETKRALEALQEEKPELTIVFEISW

Mus musculus [13] = test: Anti-inflammatory activity in MSU/C18:0 free fatty acid induced Kunming mouse model of gouty arthritis assessed as effect on pro-caspase-1 expression at 5 to 20 mg/kg, ip preadministered with compound for 30 mins followed by MSU/C18:0 free fatty acid injection and measured after 24 hrs by Western blotting analysis; type: functional, organism-based; conditions: dose 5-20 mg/kg, time 24.5 hrs
Mus musculus [14] = test: Anti-inflammatory activity in LPS/MSU-induced C57BL/6 mouse model of acute peritonitis assessed as reduction in IL-1beta expression at 20 mg/kg, ip preadministered intraperitoneally with compound for 30 mins followed by MSU injection and measured after 6 hrs by ELISA; type: functional, organism-based; conditions: time 6.5 hrs
THP-1 [15] = test: Inhibition of p20 fragment of caspase 1 protein expression in LPS/MSU stimulated human THP-1 cells supernatant by Western blotting analysis; type: functional, cell-based
[16] = tested on: Caspase-1 (Homo sapiens), P29466 [C244A]; test: Inhibition of recombinant caspase-1 C244A mutant (unknown origin) at 100 uM relative to control
Chain of Caspase-1 (Homo sapiens), P29466 [C244A] (P29466 whole entry C244A): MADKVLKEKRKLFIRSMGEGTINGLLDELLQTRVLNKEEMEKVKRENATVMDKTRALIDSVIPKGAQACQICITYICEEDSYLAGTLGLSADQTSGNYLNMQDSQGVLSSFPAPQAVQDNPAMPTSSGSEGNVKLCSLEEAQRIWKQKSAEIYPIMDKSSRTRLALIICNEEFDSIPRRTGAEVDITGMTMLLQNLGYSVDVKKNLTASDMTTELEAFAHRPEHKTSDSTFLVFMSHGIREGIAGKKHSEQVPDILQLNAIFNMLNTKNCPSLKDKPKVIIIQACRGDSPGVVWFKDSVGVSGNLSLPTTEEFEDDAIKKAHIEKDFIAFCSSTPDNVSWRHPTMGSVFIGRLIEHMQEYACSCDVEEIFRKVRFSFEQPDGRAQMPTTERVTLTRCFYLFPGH

J774.A1 [17] = test: Downregulation of IKKalpha/beta phosphorylation in mouse J774.A1 cells at 0.5 to 2 uM preincubated for 30 mins followed by LPS addition and measured after 2 hrs by Western blotting analysis; type: functional, cell-based; conditions: dose 0.5-2 µM, time 2.5 hrs
[18] = target: NACHT, LRR and PYD domains-containing protein 3 (Mus musculus) (UniProt Q8R4B8); test: Inhibition of NLRP3 inflammasome activation in mouse BMDMs assessed as reduction in IL-1beta production at 0.5 to 2 uM pretreated with pam3CSK4 for 3 hrs followed by compound addition for 30 mins prior to cytosolic LPS stimulation for 16 hrs by ELISA; type: cell-based; conditions: BMDM, dose 0.5-2 µM, time 16.5 hrs
[19] = tested on: Caspase-1 (Homo sapiens), P29466 [C285A]; test: Binding affinity to Flag-tagged caspase-1 C285A mutant (unknown origin) expressed in HEK293T cells by pull-down assay; type: cell-based; conditions: dose 2.0 µM
Chain of Caspase-1 (Homo sapiens), P29466 [C285A] (P29466 whole entry C285A, the tested form may be a part): as the sequence (P29466 whole entry C244A) above, with A244C, C285A counted along it

[20] = target: NACHT, LRR and PYD domains-containing protein 3 (Mus musculus) (UniProt Q8R4B8); test: Inhibition of NLRP3 inflammasome activation in LPS/MSU stimulated mouse J774.A1 cells assessed as reduction in IL-1beta production incubated for 4 hrs by ELISA; type: cell-based
THP-1 [21] = test: Inhibition of p20 fragment of caspase 1 protein expression in LPS/ATP stimulated human THP-1 cells supernatant by Western blotting analysis; type: functional, cell-based
Mus musculus [22] = test: Anti-inflammatory activity in MSU/C18:0 free fatty acid induced ip dosed Casp1 knockout Kunming mouse model of gouty arthritis assessed as reduction in foot swelling preadministered with compound for 30 mins followed by MSU/C18:0 free fatty acid injection and measured after 24 hrs; type: functional, organism-based; conditions: time 24.5 hrs
J774.A1 [23] = test: Inhibition of pyroptosis in mouse J774.A1 cells assessed as reduction in number of annexin V and PI positive cells pretreated with LPS for 3 hrs followed by compound addition in presence of nigericin by flow cytometry analysis; type: functional, cell-based
THP-1 [24] = test: Effect on pro-1L-1beta protein expression in LPS/nigericin stimulated human THP-1 cells supernatant at 0.5 to 2 uM by Western blotting analysis; type: functional, cell-based; conditions: dose 0.5-2 µM
J774.A1 [25] = test: Inhibition of pyroptosis in mouse J774.A1 cells assessed as reduction in number of propidium iodide positive cells at 0.5 to 2 uM pretreated with LPS for 3 hrs followed by compound addition in presence of nigericin by flow cytometry analysis; type: functional, cell-based; conditions: dose 0.5-2 µM
J774.A1 [26] = test: Inhibition of pro-caspase 1 to RIP2 interaction in LPS stimulated mouse J774.A1 cells at 1 uM by immunoprecipitation method; type: cell-based
THP-1 [27] = test: Inhibition of p20 fragment of IL-1beta protein expression in LPS/nigericin stimulated human THP-1 cells supernatant at 0.5 to 2 uM by Western blotting analysis; type: functional, cell-based; conditions: dose 0.5-2 µM
THP-1 [28] = test: Inhibition of p20 fragment of caspase 1 protein expression in LPS/nigericin stimulated human THP-1 cells supernatant at 0.5 to 2 uM by Western blotting analysis; type: functional, cell-based; conditions: dose 0.5-2 µM
[29] = tested on: Caspase-1 (Homo sapiens), P29466 [C270A]; test: Binding affinity to recombinant caspase-1 C270A mutant (unknown origin) at 2 uM by SDS-PAGE analysis
Chain of Caspase-1 (Homo sapiens), P29466 [C270A] (P29466 whole entry C270A): as the sequence (P29466 whole entry C244A) above, with A244C, C270A counted along it

Compound: COc1ccc2c(c1)[C@]1(C=C[C@H](N=C=S)C[C@H]1C(=O)OC(C)(C)C)C(=O)N2C(=O)OCc1ccccc1
- Activity (THP-1 [1]): inactive
- Activity [2]: Non-Toxic
- Tmax [3]: 1.5 h
- inhibition (J774.A1 [4]): Active
- Activity (Mus musculus [5]): Active
- inhibition (THP-1 [6]): Active
- Activity (Mus musculus [7]): Active
- inhibition (J774.A1 [8]): Active
- inhibition (J774.A1 [9]): inactive
- inhibition (J774.A1 [10]): inactive
- Activity [11]: Non-Toxic
- inhibition (Caspase-7 (Mus musculus)): inactive
- inhibition [12]: inactive
- Activity (Mus musculus [13]): inactive
- Activity (Mus musculus [14]): Active
- inhibition (THP-1 [15]): Active
- inhibition [16]: inactive
- Activity (J774.A1 [17]): Active
- inhibition [18]: Active
- Activity [19]: inactive
- inhibition [20]: Active
- inhibition (THP-1 [21]): Active
- Activity (Mus musculus [22]): inactive
- inhibition (J774.A1 [23]): Active
- Activity (THP-1 [24]): inactive
- inhibition (J774.A1 [25]): Active
- inhibition (J774.A1 [26]): Active
- inhibition (THP-1 [27]): Active
- inhibition (THP-1 [28]): Active
- Activity [29]: Active
